Reference: ChEMBL document CHEMBL5052841, “Usp19 inhibitors for use in therapy” (2020)

The molecules below were run against T1, Ubiquitin carboxyl-terminal hydrolase 19 (Homo sapiens, UniProt O94966) (assay: Inhibition of C-terminal His6-tagged recombinant human USP19 using iso-peptide ubiquitin-Lys-TAMRA as substrate incubated for 30 mins and measured after 90 mins by fluorescent polarization assay).
T1 sequence (O94966 whole entry): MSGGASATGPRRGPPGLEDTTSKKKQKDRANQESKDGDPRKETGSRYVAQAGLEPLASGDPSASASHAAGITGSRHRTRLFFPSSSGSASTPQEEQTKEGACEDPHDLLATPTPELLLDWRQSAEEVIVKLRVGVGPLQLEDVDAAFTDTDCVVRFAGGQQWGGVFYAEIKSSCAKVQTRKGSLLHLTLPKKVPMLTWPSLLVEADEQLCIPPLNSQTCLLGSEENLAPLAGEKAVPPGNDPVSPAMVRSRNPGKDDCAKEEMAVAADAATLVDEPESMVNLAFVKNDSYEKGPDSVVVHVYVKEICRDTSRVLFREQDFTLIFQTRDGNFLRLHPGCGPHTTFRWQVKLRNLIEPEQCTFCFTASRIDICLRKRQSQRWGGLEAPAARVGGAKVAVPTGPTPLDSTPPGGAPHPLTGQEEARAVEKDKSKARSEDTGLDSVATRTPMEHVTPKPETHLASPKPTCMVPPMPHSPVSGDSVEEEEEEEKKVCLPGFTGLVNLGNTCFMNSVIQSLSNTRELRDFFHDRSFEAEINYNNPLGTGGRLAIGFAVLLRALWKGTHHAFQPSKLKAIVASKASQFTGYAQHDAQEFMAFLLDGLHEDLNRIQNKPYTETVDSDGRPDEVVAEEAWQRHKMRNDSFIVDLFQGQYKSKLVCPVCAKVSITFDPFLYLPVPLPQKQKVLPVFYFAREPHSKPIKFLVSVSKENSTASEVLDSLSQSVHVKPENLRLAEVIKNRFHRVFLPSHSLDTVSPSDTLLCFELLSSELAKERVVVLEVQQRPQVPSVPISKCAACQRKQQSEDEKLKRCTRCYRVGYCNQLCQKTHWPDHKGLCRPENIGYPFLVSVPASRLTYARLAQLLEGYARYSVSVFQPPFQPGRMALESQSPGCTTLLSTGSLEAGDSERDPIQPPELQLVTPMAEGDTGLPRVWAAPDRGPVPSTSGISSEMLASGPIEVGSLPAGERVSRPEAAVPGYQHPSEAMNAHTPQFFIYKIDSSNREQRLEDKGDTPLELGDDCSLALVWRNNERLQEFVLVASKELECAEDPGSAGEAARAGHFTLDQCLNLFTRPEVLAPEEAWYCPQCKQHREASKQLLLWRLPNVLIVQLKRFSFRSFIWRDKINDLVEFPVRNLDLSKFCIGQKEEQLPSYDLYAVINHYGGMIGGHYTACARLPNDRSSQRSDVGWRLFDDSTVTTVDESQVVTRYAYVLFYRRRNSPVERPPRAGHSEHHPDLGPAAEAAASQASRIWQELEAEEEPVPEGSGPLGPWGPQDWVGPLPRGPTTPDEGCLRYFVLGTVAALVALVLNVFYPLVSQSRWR

| SMILES | IC50 [µM] |
| --- | --- |
| CN(C)C(=O)c1cn(C[C@]2(O)CCN(C(=O)[C@H](CCO)CC3CCCCC3)CC2(C)C)c(=O)cc1-c1ccccc1 | < 0.5 |
| C[C@H](CC1CCCCC1)C(=O)N1CC[C@@](O)(Cn2cc(C(=O)N3CCCC3)c(-c3ccccc3)cc2=O)C(C)(C)C1 | < 0.5 |
| C[C@H](CC1CCCCC1)C(=O)N1CC[C@@](O)(Cn2cc(C(=O)N(C)C)c(-c3ccccc3F)cc2=O)C(C)(C)C1 | < 0.5 |
| CN(C)C(=O)c1cn(CC2(O)CCN(C(=O)C(O)CC3CCCCC3)CC23CCCC3)c(=O)cc1-c1ccccc1 (stereo not given) | < 0.5 |
| O=C(c1cn(C[C@]2(O)CCN(C(=O)[C@H](CO)CC(F)(F)F)CC23CCCC3)c(=O)cc1-c1ccccc1)N1CCOCC1 | < 0.5 |
| C[C@H](CC1CCCCC1)C(=O)N1CCC(O)(Cn2cc(C(=O)N(C)C)c(-c3ccc(CO)cc3)cc2=O)C2(CCCC2)C1 (stereo not given in full) | < 0.5 |
| O=C(c1cn(C[C@]2(O)CCN(C(=O)C(CC(F)(F)F)CC(F)(F)F)CC23CCCC3)c(=O)cc1-c1ccccc1)N1CCNCC1 | ≤ 5 |
| O=C(C(F)CC1CCCCC1)N1CCC(O)(Cn2cnc(-c3ccccc3F)cc2=O)CC1 (racemic) | ≥ 50 |
| CN(C)C(=O)c1cn(CC2(O)CCN(C(=O)[C@@H]3C[C@@H]3c3ccccc3)CC23CCCC3)c(=O)cc1-c1ccccc1 (stereo not given in full) | < 0.5 |
| O=C(CCC1CCCC1)N1CCC(O)(Cn2cnc(-c3ccccc3F)cc2=O)CC1 | ≥ 50 |
| C[C@H](CC1CCCCC1)C(=O)N1CCC(O)(Cn2cc(C(=O)N(C)C)c(-c3cccc(CO)c3)cc2=O)C2(CCCC2)C1 (stereo not given in full) | < 0.5 |
| C[C@H](CC(F)(F)F)C(=O)N1CC[C@@](O)(Cn2cc(C(=O)N(C)C)c(-c3ccccc3)cc2=O)C2(CCCC2)C1 | < 0.5 |
| C[C@H](CC1CCCCC1)C(=O)N1CC[C@@](O)(Cn2cc(C(=O)N3CCNCC3)c(-c3ccccc3)cc2=O)C(C)(C)C1 | < 0.5 |
| CC(C)CC(C)C(=O)N1CCC(O)(Cn2cc(C(=O)N(C)C)c(-c3ccccc3)cc2=O)C2(CCCC2)C1 (stereo not given) | < 0.5 |
| C[C@H](CC1CCCCC1)C(=O)N1CCC(O)(Cn2cnc(-c3ccsc3)cc2=O)C(C)(C)C1 (stereo not given in full) | < 0.5 |
| CN(C)C(=O)c1cn(C[C@]2(O)CCN(C(=O)[C@H](CO)CC3CCC3)CC2(C)C)c(=O)cc1-c1ccccc1 | < 0.5 |
| O=C(C1CNCC1c1ccccc1)N1CC[C@@](O)(Cn2cnc(-c3ccccc3)cc2=O)C2(CCCC2)C1 (stereo not given in full) | < 0.5 |
| O=C(CCC1CCC1)N1CCC(O)(Cn2cnc(-c3ccccc3F)cc2=O)CC1 | ≥ 50 |
| O=C(c1cn(C[C@]2(O)CCN(C(=O)[C@H](CO)CC(F)(F)F)CC23CCCC3)c(=O)cc1-c1ccccc1)N1CCNCC1 | < 0.5 |
| C[C@H](CC1CCCCC1)C(=O)N1CCC(O)(Cn2cnc(-c3ccccc3F)cc2=O)C2(CCCC2)C1 (stereo not given in full) | < 0.5 |
| C[C@H](CC1CCC1)C(=O)N1CC[C@@](O)(Cn2cc(C(=O)N(C)C)c(-c3ccccc3F)cc2=O)C2(CCCC2)C1 | < 0.5 |
| O=C([C@@H]1CCNC[C@H]1c1ccccc1)N1CCC(O)(Cn2cnc(-c3ccccc3)cc2=O)C2(CCCC2)C1 (stereo not given in full) | < 0.5 |
| O=C(C1CCNC1c1ccccc1)N1CC[C@@](O)(Cn2cnc(-c3ccccc3)cc2=O)C2(CCCC2)C1 (stereo not given in full) | < 0.5 |
| C[C@H](CC1CCCCC1)C(=O)N1CCC(O)(Cn2cc(C(=O)N3CCN(C)CC3)c(-c3ccccc3)cc2=O)C(C)(C)C1 (stereo not given in full) | < 0.5 |
| C[C@H](CC1CCCCC1)C(=O)N1CC[C@@](O)(Cn2cc(C(=O)N3CCNC[C@H]3CO)c(-c3ccccc3)cc2=O)C(C)(C)C1 | < 0.5 |
| C[C@H](CC(F)(F)F)C(=O)N1CC[C@@](O)(Cn2cc(C(=O)N3CCN(C)CC3)c(-c3ccccc3)cc2=O)C2(CCCC2)C1 | < 0.5 |
| C[C@H](CC1CCCCC1)C(=O)N1CC[C@@](O)(Cn2cc(C(=O)N3CCNCC3)c(C3CC3)cc2=O)C2(CCCC2)C1 | < 0.5 |
| C[C@H](CC1CCCCC1)C(=O)N1CCC(O)(Cn2cc(C(=O)N(C)C)c(-c3ccsc3)cc2=O)C2(CCCC2)C1 (stereo not given in full) | < 0.5 |
| C[C@H](CC1CCCCC1)C(=O)N1CCC(O)(Cn2cc(C(=O)N(C)C)c(-c3ccccc3)cc2=O)C2(CCCCC2)C1 (stereo not given in full) | < 0.5 |
| CN(C)C(=O)c1cn(C[C@]2(O)CCN(C(=O)[C@H](CO)CC3CCCCC3)CC2(C)C)c(=O)cc1-c1ccccc1 | < 0.5 |
